Source: ChEMBL document CHEMBL5725721, “Pyridazinone-amides derivatives” (2017)
pIC50: −log10 of the molar value.

Biological target: Interleukin-1 receptor-associated kinase 1 (Homo sapiens, UniProt P51617)
Test: IRAK1 Enzymatic Assay: IRAK1 is a human purified recombinant enzyme (His-TEV-IRAK1 (194-712)) In this assay, IRAK-1 hydrolyses ATP and autophosphorylates.Measurement of IRAK-1 inhibition is performed in streptavidin coated 384 well FlashPlate (PerkinElmer #SMP410A).His-TEV-IRAK-1 (15 ng/well), ATP (1 μM, [33P]ATP 0.25 μCi/well) and compounds in DMSO (range of concentrations from 20 μM to 1 nM) or controls (2% DMSO) are incubated for 3 hours at 30° C. in assay buffer: Hepes pH7.0 50 mM, Fatty acid-free BSA 0.1%, Dithiothreitol DTT 2 mM, MgCl2 10 mM, EGTA 0.5 mM, Triton-X-100 0.01%. Kinase reaction is stopped by addition of EDTA. Supernatant is discarded, plates are washed three times with 150 mM NaCl and radioactivity is then measured in a Microbeta Trilux reader.

Interleukin-1 receptor-associated kinase 1, sequence (P51617 whole entry): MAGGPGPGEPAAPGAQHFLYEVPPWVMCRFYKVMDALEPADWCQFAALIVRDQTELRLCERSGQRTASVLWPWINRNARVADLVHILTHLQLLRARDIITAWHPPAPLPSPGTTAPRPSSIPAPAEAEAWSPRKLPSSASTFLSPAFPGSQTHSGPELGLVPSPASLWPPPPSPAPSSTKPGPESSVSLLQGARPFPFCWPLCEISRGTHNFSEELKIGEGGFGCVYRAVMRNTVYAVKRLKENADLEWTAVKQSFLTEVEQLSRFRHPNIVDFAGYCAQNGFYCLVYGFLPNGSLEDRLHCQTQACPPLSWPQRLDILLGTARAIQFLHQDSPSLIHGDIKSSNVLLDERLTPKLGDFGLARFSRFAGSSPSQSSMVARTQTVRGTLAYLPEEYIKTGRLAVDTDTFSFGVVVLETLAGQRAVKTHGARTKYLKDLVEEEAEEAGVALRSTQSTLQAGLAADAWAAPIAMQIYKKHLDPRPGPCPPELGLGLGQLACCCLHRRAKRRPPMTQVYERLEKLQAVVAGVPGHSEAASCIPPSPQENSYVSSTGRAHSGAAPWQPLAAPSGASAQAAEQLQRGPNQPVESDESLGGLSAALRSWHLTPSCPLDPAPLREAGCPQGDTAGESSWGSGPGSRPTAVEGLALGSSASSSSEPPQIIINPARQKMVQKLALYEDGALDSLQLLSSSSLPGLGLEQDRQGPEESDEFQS

pIC50: > 7.00
SMILES: Cc1ccncc1-c1ccc(=O)n(Cc2cccc(C(=O)Nc3nc4ccccc4[nH]3)c2)n1
